Test results reported in patent US20260103479A1, “PRODRUGS OF OPICAPONE” (BIAL- PORTELA & CA, S.A., priority 2022, published 2026).
In brackets after ≈: the same amount, converted by molar mass. Where a name gives a salt, the structure may show the parent alone.

Columns and labels:
[1] = physchem; settings: water, thermodynamic from solid, Solubility in pure water
Description: (§1) The solubility studies were completed at room temperature. For the determination of the solubility increasing amounts of distilled water was added to 5 mg of the test sample until its complete dissolution of the product observed by naked eye.

[2] = Aqueous solubility in distilled (pure) water at room temperature; settings: thermodynamic from solid
Description: as §1

Row | SMILES | solubility [1] [µg/mL] | solubility [2] [µg/mL]
1 | Cc1c(Cl)c(C)[n+]([O-])c(Cl)c1-c1noc(-c2cc(OP(=O)(O)O)c(O)c([N+](=O)[O-])c2)n1 [Compound 3, 2,5-dichloro-3-(5-(4-hydroxy-3-nitro-5-(phosphonooxy)phenyl)-1,2,4-oxadiazol-3-yl)-4,6-dimethylpyridine 1-oxide, triammonia salt] | > 500 | 
2 | Cc1c(Cl)c(C)[n+]([O-])c(Cl)c1-c1noc(-c2cc(O)c(O)c([N+](=O)[O-])c2)n1 [Opicapone, 2,5-dichloro-3-(5-(3,4-dihydroxy-5-nitrophenyl)-1,2,4-oxadiazol-3-yl)-4,6-dimethylpyridine 1-oxide] |  | 23 to 36 (≈ 55.7 to 87.1 µM)
